Values joined by “and” are separate entries in the source; they are usually repeats but may differ in a detail not shown here. Identical values can stand only once. “Also recorded” adds a separate entry of the source.
Tests used:
[1] = system: SKOV3ip1; assay: Tumor cell proliferation (PCNA) in orthotopic SKOV3ip1 tumors; type: in vivo, mice; conditions: compared to controls
Protocol: (§1) Analysis of tumor microvessel density (CD31) and proliferation (PCNA). Microvessel density analysis was performed by immunostaining for CD31 antigen in orthotopic tumors as previously described (Halder et al., 2006). Briefly, frozen slides were rehydrated in acetone, blocked for endogenous peroxidases with H2O2 in methanol, and incubated overnight at 4° C. with rat anti-mouse m-CD31 antibodies (1:800; BD Bioscience, Pharmingen, San Jose, Calif.). The following day, slides were incubated with appropriate secondary antibody and detected with DAB substrate. Proliferation was assessed by staining for PCNA on paraffin slides as previously reported (Halder et al., 2006). After deparaffinization and rehydration, slides were heated in microwave at 98° C. for 10 min in 0.1M citrate buffer (pH 6.0) for antigen retrieval, blocked for endogenous peroxidases, and then incubated with fragment blocker (1:10; Jackson Immunoresearch Lab., West Grove, Pa.) overnight at 4° C. to reduce murine antigen interference. Following day, slides were incubated with primary antibody (1:50; anti-PCNA, PC-10, mouse IgG, Dako, Carpinteria, Calif.) for 4 hours at RT, washed with PBS, and re-incubated for 1 hour at RT with appropriate secondary. Detection was performed with DAB substrate. Quantification of MVD and proliferation was performed as previously described (Halder et al., 2006).

[2] = system: HeyA8; assay: Tumor cell proliferation (PCNA) in orthotopic HeyA8 tumors; type: in vivo, mice; conditions: compared to controls
Protocol: as §1

[3] = system: HeyA8; assay: IL-8 siRNA therapy in orthotopic murine ovarian cancer model, HeyA8; type: in vivo, mice
Text: (§2) Cell lines and cultures. The derivation and source of the epithelial ovarian cancer cell lines HeyA8 and SKOV3ip1 have been previously described (Halder et al., 2006; Landen et al., 2005). The taxane-resistant cell line, SKOV3ip2.TR (a gift from Dr. Isaiah J. Fidler, M.D. Anderson Cancer Center [MDACC], Houston, Tex.), was derived from the SKOV3ip1 cells following serial passages in media containing paclitaxel. All cell lines were maintained and propagated in RPMI-1640 media supplemented with 15% fetal bovine serum and 0.1% gentamicin sulfate (Gemini Bioproducts, Calabasas, Calif.). SKOV3ip2.TR media also contained 100-150 ng/ml paclitaxel. All experiments were performed at 60-80% confluency and cell lines routinely tested for Mycoplasma. For in vivo experiments, cells were trypsinized, centrifuged at 1000 rpm at 4° C. for 7 minutes, washed twice with HBSS, and resuspended at a concentration of 1.25×10^6 cells/ml (HeyA8) and 5×10^6 cells/ml (SKOV3ip1 and SKOV3ip2.TR).
(§3) Preparation of liposomal siRNA for in vivo delivery. For all in vivo experiments, siRNA constructs were incorporated into neutral liposomes (DOPC: 1,2-dioleoyl-sn-glycero-3-phosphatidylcholine), lyophilized, and stored at −20° C. (Landen et al., 2005). Prior to in vivo delivery, siRNA-DOPC preparations were resuspended with PBS to appropriate concentrations.
(§4) IL-8 siRNA therapy in an orthotopic murine ovarian cancer model. Female athymic nude mice were purchased from the National Cancer Institute-Frederick Cancer Research and Development Center (Frederick, Md.) and housed in specific pathogen-free conditions. […]
(§5) Development and characterization of the orthotopic murine model of advanced ovarian cancer used in these experiments has been previously described (Halder et al., 2006; Landen et al., 2005). […] Mice were monitored daily for signs of adverse effects and sacrificed when moribund. Tumor weights, number of tumor nodules, pattern of disease spread, presence and amount of ascites, and mouse weights were recorded at necropsy. […]

[4] = system: SKOV3ip2.TR; assay: IL-8 siRNA therapy in orthotopic murine ovarian cancer model, taxane-resistant SKOV3ip2.TR; type: in vivo, mice
Text: as §2, §3, §4, §5

[5] = system: SKOV3ip1; assay: Tumor microvessel density (CD31) in orthotopic SKOV3ip1 tumors; type: in vivo, mice; conditions: CD31 staining
Protocol: as §1

[6] = system: SKOV3ip1; assay: IL-8 siRNA therapy in orthotopic murine ovarian cancer model, SKOV3ip1; type: in vivo, mice
Text: as §2, §3, §4, §5

[7] = system: HeyA8; assay: Tumor microvessel density (CD31) in orthotopic HeyA8 tumors; type: in vivo, mice; conditions: CD31 staining
Protocol: as §1

[8] = system: MMP2; assay: MMP2 expression after IL-8 siRNA transfection in vitro; type: cell-based, human; conditions: HeyA8 and SKOV3ip1 cell lines; following siRNA transfection in vitro
[9] = system: IL-8 mRNA; assay: IL-8 mRNA expression by RT-PCR after in vitro siRNA transfection; type: cell-based, human; conditions: RT-PCR 36-48 hours after siRNA transfection, compared to control siRNA
Text: as §2
SiRNA and in vitro transfections. […]
mRNA and protein IL-8 expression analysis for in vitro transfections. The expression of IL-8 in vitro was determined with RT-PCR and ELISA 36-48 hours after siRNA transfection. […] For ELISA, cells were treated with serum-free media day prior to analysis and IL-8 protein levels were quantified using a commercially available ELISA kit (R&D Systems, Minneapolis, Minn.). […]

[10] = system: HeyA8 cell line; assay: Tumor cell invasion in vitro; type: cell-based, human
[11] = system: MMP9; assay: MMP9 expression after IL-8 siRNA transfection in vitro; type: cell-based, human; conditions: HeyA8 and SKOV3ip1 cell lines; following siRNA transfection in vitro
[12] = system: IL-8; assay: Secreted IL-8 protein by ELISA after in vitro siRNA transfection; type: cell-based, human; conditions: for IL-8 protein levels reduced by: ELISA 36-48 hours after siRNA transfection
Text: as §2
SiRNA and in vitro transfections. IL-8 targeting siRNA purchased from Dharmacon (Lafayette, Colo.) was used to silence IL-8 expression in ovarian cancer cell lines (target sequence: GCCAAGGAGUGCUAAAGAA—SEQ ID NO:1). The sequence of the sense strand of the IL-8 siRNA is […] (SEQ ID NO:39) and the sequence of the antisense strand of the IL-8 siRNA is […] (SEQ ID NO:40). […] For in vitro transfections, 2×10^5 cells/well were plated into 6-well plates. The following day, cells were washed with PBS and incubated with 5 μg siRNA (IL-8 or control) with 30 μl of RNAiFect transfection reagent (Qiagen, Valencia, Calif.) in serum-containing media overnight at 37° C. Media was changed 24 hours after transfection and replaced with appropriate media.
mRNA and protein IL-8 expression analysis for in vitro transfections. The expression of IL-8 in vitro was determined with RT-PCR and ELISA 36-48 hours after siRNA transfection. For RT-PCR analysis, RNA was isolated according to manufacturer's protocol (Ambion RNAqueous Kit, Ambion, Austin, Tex.), transcribed into cDNA, and amplified: 94° C.×2 min, 94° C.×30 sec, 61° C.×30 sec, 72° C. 2 min, repeated for 21 cycles, and 72° C.×7 min (Primers: IL-8 sense […] (SEQ ID NO:48); IL-8 anti-sense […] (SEQ ID NO:49); GAPDH sense GAGCCACATCGCTCAGAC (SEQ ID NO:50); GAPDH anti-sense CTTCTCATGGTTCACACCC (SEQ ID NO:51)). For ELISA, cells were treated with serum-free media day prior to analysis and IL-8 protein levels were quantified using a commercially available ELISA kit (R&D Systems, Minneapolis, Minn.). All experiments were performed in duplicate and control siRNA was used for comparison.

[13] = HeyA8 cells, media collected at various time points

CC(=O)O[C@@]12CO[C@@H]1C[C@H](O)[C@@]1(C)C(=O)[C@H](O)C3=C(C)[C@@H](OC(=O)[C@H](O)[C@@H](NC(=O)OC(C)(C)C)c4ccccc4)C[C@@](O)([C@@H](OC(=O)c4ccccc4)[C@H]21)C3(C)C [docetaxel]
tumor cell proliferation, PCNA staining (in words) [1]: effective in reducing proliferation; also recorded: decreased tumor cell proliferation
tumor cell proliferation, PCNA staining (in words) [2]: effective in reducing proliferation; also recorded: decreased tumor cell proliferation
tumor burden, average number of tumor nodules (in words) ([3]; compared to controls): reduced tumor burden
tumor growth reduction (tumor weight) ([4]; SKOV3ip2.TR taxane-resistant, compared to controls, docetaxel 35 μg): 11%
effect on MVD / tumor angiogenesis (in words) [5]: Minimal effects
tumor burden, average number of tumor nodules (in words) ([6]; compared to controls): reduced tumor burden
effect on MVD / tumor angiogenesis (in words) [7]: Minimal effects

IL-8 siRNA: IL-8 targeting siRNA from Dharmacon; sense GCCAAGGAGUGCUAAAGAAUU (SEQ ID NO:39), antisense UUCUUUAGCACUCCUUGGCUU (SEQ ID NO:40) (incorporated into neutral DOPC liposomes, further chemistry not given here)
MMP2 expression [8]: decreased
IL-8 mRNA expression ([9]; HeyA8): significantly reduced; also recorded: significantly decreased
IL-8 mRNA expression ([9]; SKOV3ip1): significantly reduced; also recorded: significantly decreased
tumor cell invasion in vitro [10]: decreased tumor cell invasion
No. nodules (mean ± SE) [3]: 3.4 ± 0.8
Tumor incidence (%) [3]: 100%
No. nodules (mean ± SE) ([4]; SKOV3ip2.TR): 21.9 ± 3.4
Tumor incidence (%) ([4]; SKOV3ip2.TR): 90%
MMP9 expression [11]: decreased
IL-8 protein levels reduced by ([12]; HeyA8): 79% and 80%
IL-8 returning to baseline, time after transfection [12, 13]: ≤ 96 h
Maximum down regulation of IL-8, time after transfection [12, 13]: 48 h
IL-8 protein levels reduced by ([12]; SKOV3ip1): 81% and 80%
No. nodules (mean ± SE) [6]: 21.0 ± 7.3
Tumor incidence (%) [6]: 70%

Reference: patent US8067390B2, “Therapeutic targeting of interleukins using siRNA in neutral liposomes” (The Board of Regents of the University of Texas System, priority 2007, dated 2011)
